In patent US20050287552A1, “Carbohydrate encapsulated nanoparticle based affinity mass spectrometry” (Academia Sinica, Office of Public Affairs (Technology …, priority 2003, published 2005):

Target: Con A (Canavalia ensiformis, UniProt P02866)
Assay: SPR competition binding assay for Con A
Settings: Con A tetramer 0.5 uM, pre-incubated 1 hr with inhibitor
Method: A self-assembled monolayer composed of 20% mannopyranoside ligand and 80% thiobutanol mixture was generated on a J1 biosensor chip (See FIG. 9). In particular, immobilization of ligand to the biosensor chip was preformed in BIAcore 3000 instrument. A mixture of 4-mercapto-1-butanol (Ligand A) and 5-thiopentyl α-D-mannopyranoside (Ligand B) in deionized water was injected into a flow cell with the J1 biochip.
Next, the binding affinity of Con A for this chip was determined by titration with a series of Con A concentrations to generate multiple SPR curves. In particular, Con A was dissolved in sample buffer (1.0 mL, 20 mM HEPES, pH 7.0, 90 mM NaCl with 1 mM MnCl2 and CaCl2) and then filtered by a syringe. Con A solution (50 μL) was injected over immobilized biosensor surface and allowed 260 seconds for dissociation and then followed by regeneration buffer. A set of SPR response curves was obtained after different concentrations of Con A solution were applied (See FIG. 10A, showing curves for 6, 3, 1.5, 0.38, 0.19 uM of Con A (top to bottom)).
Competition assays were then conducted. […] The mixture (50 uL) was then injected and the flow rate was controlled at 60 uL/minute. The equilibrium binding response values was collected at equilibrium binding portion of the curve (260 seconds post-injection). […]

Work on α-D-methyl-mannopyrannoside [αMeMan] yielded a Ki of 200 µM.
